From patent publication US20110257233A1, “BENZOISOTHIAZOLONES AS INHIBITORS OF PHOSPHOMANNOSE ISOMERASE” (Sanford-Burnham Medical Research Institute, priority 2010, published 2011) come the findings set out here.

The IC50 is the concentration at which inhibition is half-maximal. Low values mean greater potency in that assay, high ones weaker potency in that assay.

≈ marks a conversion by molar mass, not a printed value. Read-outs that look alike come from different tables or passages of the source. Bounds are passed on as bounds.

For data set [1], the target named is T1, phosphomannose isomerase (PMI) (Homo sapiens, UniProt P34949).
T1 sequence (P34949 1-423): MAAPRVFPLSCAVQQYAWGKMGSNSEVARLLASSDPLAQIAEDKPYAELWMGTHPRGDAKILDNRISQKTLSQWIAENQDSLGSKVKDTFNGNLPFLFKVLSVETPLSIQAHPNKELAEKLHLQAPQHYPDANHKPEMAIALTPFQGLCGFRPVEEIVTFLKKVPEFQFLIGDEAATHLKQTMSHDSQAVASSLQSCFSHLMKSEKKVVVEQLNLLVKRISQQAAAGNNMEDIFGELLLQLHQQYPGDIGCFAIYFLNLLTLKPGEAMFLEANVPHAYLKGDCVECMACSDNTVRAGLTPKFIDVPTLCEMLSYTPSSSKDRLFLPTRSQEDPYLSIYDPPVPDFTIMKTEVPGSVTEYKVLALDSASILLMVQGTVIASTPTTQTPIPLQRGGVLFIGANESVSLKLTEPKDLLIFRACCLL
Briefly: PMI enzyme inhibition assay. It counts as biochemical.

The nature of data set [2]: Microsomal stability, mouse. The class given is in vitro ADME. To be noted: mouse liver microsomes. The source says:
(§1) ADME (absorption, distribution, metabolism, elimination) provides an efficient means of discovering potential issues with respect to bioavailability and the potential for in vivo efficiency. The microsomal stability assay measures a compound's potential to be metabolized by the liver and can also identify metabolic liabilities. The plasma stability assay gives essential information on whether a compound will be degraded in plasma. Finally, the Parallel Artificial Membrane Permeability Assay (PAMPA) measures compound diffusion rates through an artificial membrane to give valuable information on a compounds potential for intestinal absorption and tissue and cell permeability. [table]
Background: Liver microsomes are a subcellular fraction often used to study metabolism.

The nature of another data set: Plasma stability, mouse. It counts as in vitro ADME.
Description: as §1

Data set [3] concerns protein glycosylation (mannose incorporated in proteins). Briefly: Cellular assay: 3H-mannose incorporated in proteins vs glycolysis. It counts as cell-based. The procedure: A cellular assay was developed and utilized to provide proof-of-concept for the potential of the optimized PMI inhibitors as CDG therapeutics. […] Briefly. cells were preincubated with inhibitors and labeled with 3H-Mannose and 35S-Met/Cys. After washing and lysis, 3H- and 35S amounts were determined in the proteins.

Data set [4] in a line: Microsomal stability, human. It counts as in vitro ADME. To be noted: human liver microsomes.
Description: as §1

The next data set in a line: Plasma stability, human. It counts as in vitro ADME.
Description: as §1

Data set [5] in a line: Parallel Artificial Membrane Permeability Assay (PAMPA). It counts as in vitro ADME. To be noted: diffusion through a lipid membrane.
Description: as §1
(In general: The PAMPA barrier holds no transporters, so it reflects passive diffusion.)

For data set [6], the target named is T2, phosphomannomutase 2 (PMM) (Homo sapiens, UniProt O15305).
T2 sequence (O15305 1-246): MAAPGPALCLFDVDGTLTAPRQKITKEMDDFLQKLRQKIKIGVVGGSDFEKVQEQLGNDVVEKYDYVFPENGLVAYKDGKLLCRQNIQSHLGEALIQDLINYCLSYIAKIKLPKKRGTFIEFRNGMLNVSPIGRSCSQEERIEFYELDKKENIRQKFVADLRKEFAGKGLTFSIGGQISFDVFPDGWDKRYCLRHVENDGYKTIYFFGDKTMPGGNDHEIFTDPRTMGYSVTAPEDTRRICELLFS
Briefly: PMM enzyme inhibition assay. It counts as biochemical. To be noted: for IC50: mean of at least three determinations.

Data set [7] relates to Candida albicans (ATCC 10231). Briefly: Microbial in vitro assay 640000. The class given is cell-based. As to the method:
The methods employed in this study were adapted from the scientific literature to maximize reliability and reproducibility. The reference standards were run as an integral part of each assay to ensure the validity of the results obtained. The assays were performed under conditions described below. The literature reference(s) for each assay are also provided as follows: Enza Di Modugno, Isabelle […]. […] Antimicrobial Agents Chemotherapy 3: 40-48; […]., Pursiano, […]. and Price, K. E. (1973) In Vitro Activity of the Tribactam GV 104326 against Gram-Positive, Gram-Negative, and Anaerobic Bacteria. Antimicrobial Agents and Chemotherapy, 38: 2362-2368, 1994; Enza Di Modugno, Isabelle […]. […] Antimicrobial Agents Chemotherapy 3: 40-48; and […]., Pursiano, […]. and Price, K. E. (1973) In vitro antibacterial activity of SM-7338, a carbapenem antibiotic with stability to dehydropeptidase I Antimicrobial Agents, Chemotherapy, 33 #2:215-222, 1989. 640000 Candida albicans (ATCC 10231); Culture Medium: Fluid Sabouraud Medium; […] Incubation Time/Temp: 20 hours @ 37° C.; […] Quantitation Method: Turbidity Measurement.

In data set [8] the test system is Cryptococcus neoformans (ATCC 24067). Briefly: Microbial in vitro assay 647000. It counts as cell-based. The procedure:
The methods employed in this study were adapted from the scientific literature to maximize reliability and reproducibility. The reference standards were run as an integral part of each assay to ensure the validity of the results obtained. The assays were performed under conditions described below. The literature reference(s) for each assay are also provided as follows: Enza Di Modugno, Isabelle […]. […] Antimicrobial Agents Chemotherapy 3: 40-48; […]., Pursiano, […]. and Price, K. E. (1973) In Vitro Activity of the Tribactam GV 104326 against Gram-Positive, Gram-Negative, and Anaerobic Bacteria. Antimicrobial Agents and Chemotherapy, 38: 2362-2368, 1994; Enza Di Modugno, Isabelle […]. […] Antimicrobial Agents Chemotherapy 3: 40-48; and […]., Pursiano, […]. and Price, K. E. (1973) In vitro antibacterial activity of SM-7338, a carbapenem antibiotic with stability to dehydropeptidase I Antimicrobial Agents, Chemotherapy, 33 #2:215-222, 1989. […] Incubation Time/Temp: 2 days @37° C.; […] Time of Assessment: 2 days; Quantitation Method: Turbidity Measurement

Setting [9] is: mean of at least three determinations.
Where [10] appears, read: reference standard run with the assay.

In data set [1] (setting [9]), `O=c1c2cc(F)ccc2sn1-c1ccc(Cl)cc1` [Compound 24, 2-(4-Chlorophenyl)-5-fluoro-2-hydrobenzo[d]isothiazol-3-one] showed an IC50 of 1.8 µM.
For `O=c1c2cc(F)ccc2sn1-c1ccccc1F` [Compound 23], the IC50 in data set [1] (setting [9]) was found to be 4.3 µM. In addition, the “Microsomal Stability (% remaining after 1 hour)” value in data set [2] was found to be 98.40 % remaining; in data set [4], 27.66 % remaining. The “Plasma Stability (% remaining after 1 hour)” value in the data set “Plasma stability, mouse” is 106.7 % remaining; in the data set “Plasma stability, human” it was 35.7 % remaining. For the same compound, the “fold increase in the amount of mannose incorporated in proteins vs glycolysis” value (from here on “fold increase in the amount”) in data set [3] (25.0 μM) is reported as 0.7 fold; in data set [3] (50 μM) it was 2.5 fold; in [3] (12.5 (head prints no unit)), 9.1 fold. In [5], the Permeability entry is given as “Medium”.
`COC(=O)c1cccc(-n2sc3ccccc3c2=O)c1` [Compound 9]: the half-maximal inhibitory concentration (IC50) was 4.9 µM in [1] (setting [9]) and more than 20 µM in [6].
As to `CN(C)c1ccc(-n2sc3ccccc3c2=O)cc1` [Compound 12, 2-[4-(Dimethylamino)phenyl]-2-hydrobenzo[d]isothiazol-3-one], the IC50 in data set [1] (setting [9]) is 1.9 µM; in data set [6], 13.3 µM. Further, in data set [3] (50 μM), the “fold increase in the amount” value turned out to be 1.0 fold.
As to `Cc1ccc(C)c(-n2sc3ccc(F)cc3c2=O)c1` [Compound 20], the IC50 in data set [1] (setting [9]) was 1.9 µM; in [6] it was more than 20 µM. In addition, the “Microsomal Stability (% remaining after 1 hour)” value in [2] is reported as 85.04 % remaining; in data set [4], 100 % remaining. The “Plasma Stability (% remaining after 1 hour)” value in “Plasma stability, mouse” amounted to 99.4 % remaining; in the data set “Plasma stability, human” it was 96.7 % remaining. In addition, the results for the “fold increase in the amount” value in [3] (25.0 μM), in data set [3] (50 μM) and in data set [3] (12.5 (head prints no unit)) were 2.3 fold, 3.2 fold and 1.9 fold, respectively. The Permeability entry in [5] is on record as “Medium”.
`COc1cccc(-n2sc3ccccc3c2=O)c1` [Compound 15, 2-(3-Methoxyphenyl)-2-hydrobenzo[d]isothiazol-3-one]: the IC50 in [1] (setting [9]) is 3.7 µM; in data set [6], more than 20 µM.
In [1] (setting [9]), `Cc1ccccc1-n1sc2cc(F)ccc2c1=O` [Compound 16, 6-Fluoro-2-o-tolylbenzo[d]isothiazol-3(2H)-one] returned an IC50 of 2.9 µM. Also, the “Microsomal Stability (% remaining after 1 hour)” value in [2] came out at 90.03 % remaining; in data set [4], 90 % remaining. The “Plasma Stability (% remaining after 1 hour)” value is 117.5 % remaining in the data set “Plasma stability, mouse” and 49.7 % remaining in “Plasma stability, human”. Also, the “fold increase in the amount” value worked out at 2.8 fold in [3] (25.0 μM), 1.7 fold in [3] (50 μM) and 2.7 fold in [3] (12.5 (head prints no unit)). Further, the Permeability entry in data set [5] is reported as “Medium”.
On to `Cc1ccc(C)c(-n2sc3cc(F)ccc3c2=O)c1` [Compound 17], for which the IC50 in data set [1] (setting [9]) came to 1.1 µM; in data set [6] it was 7.3 µM.
`O=c1c2ccccc2sn1-c1cccc(C(F)(F)F)c1` [Compound 5, 2-[3(Trifluoromethyl)phenyl]-2-hydrobenzo[d]isothiazol-3-one]: the figures for the IC50 in data set [1] (setting [9]) and in [6] were 3.4 µM and more than 20 µM, respectively.
`Cc1ccc(-n2sc3ccccc3c2=O)cc1` [Compound 4, 2-(4-Methylphenyl)-2-hydrobenzo[d]isothiazol-3-one] returned a concentration for half-maximal inhibition (IC50) in data set [1] (setting [9]) of 3.6 µM.
In turn, `O=c1c2ccccc2sn1-c1cccc(Cl)c1` [Compound 7, 2(3-Chlorophenyl)-2-hydrobenzo[d]isothiazol-3-one] gave an IC50 in data set [1] (setting [9]) of 4.8 µM.
Compound `COc1ccc(-n2sc3ccc(F)cc3c2=O)cc1` [Compound 22, 5-Fluoro-2-(4-methoxyphenyl)-2-hydrobenzo[d]isothiazol-3-one] displayed an IC50 in [6] of 9.1 µM. In addition, the entries for the “Microsomal Stability (% remaining after 1 hour)” value in [2] and in data set [4] were 84.06 % remaining and 100 % remaining, respectively. Further, the “Plasma Stability (% remaining after 1 hour)” value in “Plasma stability, mouse” is on record as 96.3 % remaining; in “Plasma stability, human”, 107.0 % remaining. Also, in [5], the Permeability entry was “Low”.
With `O=c1c2cc(F)ccc2sn1-c1ccccc1` [Compound 19, 5-Fluoro-2-phenylbenzo[d]isothiazol-3(2H)-one], the 50% inhibitory concentration (IC50) in [1] (setting [9]) is 1.3 µM; in data set [6], more than 20 µM. For the same compound, the PMM inhibition result in data set [6] (tested up to 20 μM) is “inactive”. Also, the MIC in data set [7] (ATCC10231, Candida albicans, turbidity, read-out: minimal inhibitory concentration) was found to be 3000 µg/mL (≈ 12.2 mM); in [8] (ATCC24067, Cryptococcus neoformans, turbidity, read-out: minimal inhibitory concentration) it was 1000 µg/mL (≈ 4.08 mM).
For `O=c1c2cc(F)ccc2sn1-c1ccc(F)cc1` [Compound 21, 5-Fluoro-2-(4-fluorophenyl)-2-hydrobenzo[d]isothiazol-3-one], in data set [6], the IC50 was more than 20 µM. Moreover, the results for the “Microsomal Stability (% remaining after 1 hour)” value in [2] and in [4] were 81.24 % remaining and 24.93 % remaining, respectively. For the same compound, the “Plasma Stability (% remaining after 1 hour)” value came to 71.4 % remaining in the data set “Plasma stability, mouse” and 0.0 % remaining in the data set “Plasma stability, human”. Besides, the Permeability entry in [5] is “High”.
As to `CCOC(=O)c1ccc(-n2sc3ccccc3c2=O)cc1` [Compound 10], it took 7.2 µM to reach half-maximal inhibition in data set [1] (setting [9]) (IC50).
In turn, `O=c1c2ccccc2sn1-c1ccccc1` [Compound 1, 2-Phenyl-2-hydrobenzo[d]isothiazol-3-one] gave an IC50 in data set [1] of 6.4 µM.
In data set [6], `COc1ccc(-n2sc3cc(F)ccc3c2=O)cc1` [Compound 18] registered an IC50 of 12.9 µM.
`Cc1cccc(-n2sc3ccccc3c2=O)c1` [Compound 3, 2-(3-Methylphenyl)-2-hydrobenzo[d]isothiazol-3-one] displayed an IC50 in data set [1] (setting [9]) of 6 µM.
`C[C@@H]1[C@H](O)[C@@H](C)/C=C/C=C/C=C/C=C/C=C/C=C/C=C/[C@H](O[C@@H]2O[C@H](C)[C@@H](O)[C@H](N)[C@@H]2O)C[C@@H]2O[C@](O)(C[C@@H](O)C[C@@H](O)[C@H](O)CC[C@@H](O)C[C@@H](O)CC(=O)O[C@H]1C)C[C@H](O)[C@H]2C(=O)O` [Amphotericin B Solubilized, reference compound]: the “CONCURRENT (reference compound data)” value in data set [7] (setting [10]) and in [8] (setting [10]) was 0.1 µg/mL each time.
